# Source: US9200333B2, “Methods for identifying modulators of murine double minute 2” (Indiana University Research and Technology Corporation, priority 2012, dated 2015)
# What was measured:
# Assay type in all cases: cell-based, human
# [1] = system: p53 activity (PG13-Luc) in H1299 cells; assay: PG13-Luc luciferase assay in H1299 cells transfected with p53, Mdm2 and CA-Src; settings: H1299 cells transfected with PG-13-luc, FIG. 32
# Experimental: (§1) For the luciferase assays, H1299 and MCF7 cells were transfected with PG13-Luc, Mdm2-P2-Luc, Maspin-Luc or Mutant Maspin-Luc (MT1) along with Myc-LacZ for determination of […] activity, using the calcium phosphate method. Reporter activity was normalized to […] activity. Data generated were done in triplicate and standard deviation was calculated from the mean.
# H1299 cells were transfected with the PG-13-luc, p53, Mdm2 and CA-Src. Reduction in p53 activity by Mdm2 was further increased in the presence of c-Src.
# [2] = system: neddylating activity of Mdm2 (neddylated p53) in H1299 cells; assay: Western blot of neddylated p53 in H1299 cells transfected with p53, Mdm2 and CA-Src; settings: vs DMSO, FIG. 29
# Experimental: (§2) Mammalian cells (H1299 and MCF7) were cultured at 37° C. in a humidified incubator with 5% CO2 in DMEM high glucose plus 10% FBS. Transfection in H1299 was performed using a calcium phosphate method and in MCF7 using Lipofectamine Plus reagent (Invitrogen). Equal amounts of DNA were transfected into cells and incubated for the indicated times prior to analysis. PPI (Calbiochem) and MLN4924 (LifeSensors) were used at concentrations provided. Site-directed mutagenesis was performed by PCR, and constructs were sequenced in their entirety.
# H1299 cells were transfected with His-Ubiquitin or His-Nedd8 and other plasmids as indicated using calcium phosphate method. 48 hours after transfection, cells were lysed in 1 ml of 6M guanidinium-HCl, 0.1M Na2HPO4/NaH2PO4, 0.01M Tris-HCl pH 8.0 plus 5 mM Imidazole and 10 mM β-mercaptoethanol. After sonication, the lysates were mixed with 30 μl of Ni^2+-NTA-agarose beads (Qiagen) prewashed with lysis buffer and incubated for 2 hours at room temperature. The beads were successively washed and eluted.
# Based on transient transfection data that supported its role as a neddylating enzyme, the affect of pharmacological inhibition of neddylating activity of Mdm2 using MLN4924 was determined.
# [3] = system: endogenous neddylated p53 in MCF7 cells; assay: Immunoprecipitation of p53 from MCF7 cells and anti-Nedd8 immunoblot; settings: vs DMSO, FIG. 30
# Experimental: (§3) Whole cell lysates (Lysates) were prepared in Nonidet P-40 lysis buffer (25 mM Tris, pH 8.0, 150 mM NaCl, 0.5 mM EDTA, 0.5 mM EGTA, 1% Nonidet P-40, 1 mM sodium orthovanadate, 1 mM DTT) and supplemented with protease inhibitor mixture set III (Calbiochem) at 1:100 and incubated on ice for 30 min. Debris was collected by centrifugation, and equal amounts of supernatant protein were determined by BioRad assay. Protein was fractionated by SDS-PAGE and transferred to PVDF membrane (Amersham Biosciences). Antibodies used for Western blotting were: Mdm2 (SMP14, 2Al0, and 4Bl1), c-Src (B-12; Santa Cruz), p53 (DO-1), tubulin (TU-02), GAPDH (8C2), and β-actin (C4; Santa Cruz Biotechnology); phosphotyrosine (4010; Upstate); phospho-c-Src Tyr^416 (Cell Signaling); Myc (9E10) and HA (12CA5) Immunoprecipitation from lysates was performed using 500 ng of either SMP14 for Mdm2, HA (12CA5), p53 (D01) or c-Src (B-12) antibody overnight at 4° C. in 700 μl of PBS. Protein A/G Plus Agarose (Santa Cruz Biotechnology) was added to the mixture and incubated an additional 2 hrs at 4° C., precipitates were washed three times in PBS, and samples were resuspended in SDS loading buffer and boiled for 5 min.
# To determine the role of c-Src on endogenous neddylation of p53, the c-Src inhibitor PP1 was used to treat MCF7 cells. MCF7 cells were treated with PP1, and p53 was immunoprecipitated from cell extracts. […]
# mdm2 P2 promoter = assay: mdm2-P2-Luc luciferase reporter assay in MCF7 cells; settings: vs DMSO, FIG. 16
# Experimental: as §1
# To determine whether c-Src altered mdm2 gene expression, a luciferase reporter assay was conducted in which the mdm2 P2 promoter was attached to luciferase.
# [4] = system: endogenous Mdm2 tyrosine phosphorylation in MCF7 cells; assay: Immunoprecipitation of Mdm2 from MCF7 extracts and immunoblot for phosphorylated tyrosine; settings: MCF7 cells pretreated 16 hrs; FIG. 8
# Experimental: as §2
# Whole cell lysates (Lysates) were prepared in Nonidet P-40 lysis buffer (25 mM Tris, pH 8.0, 150 mM NaCl, 0.5 mM EDTA, 0.5 mM EGTA, 1% Nonidet P-40, 1 mM sodium orthovanadate, 1 mM DTT) and supplemented with protease inhibitor mixture set III (Calbiochem) at 1:100 and incubated on ice for 30 min. Debris was collected by centrifugation, and equal amounts of supernatant protein were determined by BioRad assay. Protein was fractionated by SDS-PAGE and transferred to PVDF membrane (Amersham Biosciences). […]
# First, H1299 cells were transfected with HA-tagged Mdm2 (HA-Mdm2) with either constitutively active c-Src (CA-Src) or a kinase dead Src (KD-Src). […] Along with overexpression, whether c-Src could phosphorylate endogenous Mdm2 was determined. […]
# p53 levels in MCF7 cells = assay: Western blot of endogenous p53 levels in MCF7 cells
# Experimental: as §3
# To examine endogenous p53 levels, MCF 7 cells were transfected with increasing amounts of CA-Src. […]
# [5] = system: Mdm2 protein levels in MCF7 cells; assay: Western blot of endogenous Mdm2 protein levels in MCF7 cells
# Experimental: as §2, §3
# To examine how c-Src regulates endogenous Mdm2 protein levels, c-Src was activated through epidermal growth factor (EGF) stimulation of MCF7 cells. MCF7 cells were serum-starved for 48 hrs and then treated with 200 ng/mL of EGF for a time course of 2 hrs. […]
# [6] = system: p53 activity on the maspin promoter in MCF7 cells; assay: Maspin-Luc luciferase assay in MCF7 cells; settings: 16 hrs, FIG. 35
# Experimental: as §1
# To ensure that the decrease seen on the maspin promoter was due to c-Src phosphorylation of Mdm2, another luciferase assay was done using the Y281-302F Mdm2 and CA-Src. […] For further insight on how endogenous neddylation of p53 would affect maspin level, MCF7 cells were transfected with the maspin-Luc construct or a mutant maspin-Luc (MT1) that is unresponsive to p53, to ensure luciferase activity was dependent on p53. c-Src was then inhibited for 16 hrs using PP1 and a luciferase assay was performed. […] These findings provide insight into the regulation of c-Src-induced neddylation of p53. This neddylation event is responsible for the further reduction in p53 activity on both the PG13-Luc and on its ability to activate the tumor suppressor maspin (FIG. 37).
# [7] = system: maspin protein in MCF7 cells; assay: Western blot of Maspin in MCF7 cells; settings: vs DMSO, FIG. 36
# Experimental: as §3
# To ensure that the decrease seen on the maspin promoter was due to c-Src phosphorylation of Mdm2, another luciferase assay was done using the Y281-302F Mdm2 and CA-Src. […]
molecule,measurement,setting,value
NS(=O)(=O)OC[C@@H]1C[C@@H](n2ccc3c(N[C@H]4CCc5ccccc54)ncnc32)C[C@@H]1O [MLN4924],p53 activity (PG13-Luc),[1],restored p53 activity to levels observed with Mdm2 alone
same,neddylated p53,[2],loss of neddylated p53
Cc1ccc(-c2nn(C(C)(C)C)c3ncnc(N)c23)cc1 [PP1],endogenous neddylated p53,[3],decrease in endogenous neddylated p53
same,mdm2 promoter luciferase activity,mdm2 P2 promoter,No difference
same,endogenous Mdm2 tyrosine phosphorylation,[4],loss of endogenous Mdm2 tyrosine phosphorylation
same,p53 levels,"p53 levels in MCF7 cells; MCF7 cells, increasing concentrations (1, 5, 10, 15, 20 μM), FIG. 24",dose dependent decrease in p53 levels
same,Mdm2 levels,"[5]; MCF7 cells, increasing concentrations (1, 5, 10, 15, 20 μM), FIG. 14",dose-dependent decrease in Mdm2 levels
same,Mdm2 protein level after EGF,"[5]; serum starved MCF7 cells pre-treated 1 hr before addition of EGF, FIG. 13",no apparent increase in Mdm2
same,p53 activity on maspin-Luc construct,[6],increase of p53 activity on the maspin-Luc construct
same,maspin protein level,[7],maspin protein was increased
EGF: epidermal growth factor used to activate c-Src in MCF7 cells,p53 levels on EGF stimulation,"p53 levels in MCF7 cells; MCF7 cells serum starved 48 hours, 1-hour time course, FIG. 23",increase in p53
same,Mdm2 protein levels on EGF stimulation,"[5]; MCF7 cells serum-starved 48 hrs, 200 ng/mL, time course of 2 hrs, FIG. 12",increase of Mdm2 protein levels
